# From US20150141381A1, “TETRACYCLINE COMPOUNDS HAVING TARGET THERAPEUTIC ACTIVITIES” (Paratek Pharmaceuticals, Inc., priority 2001, published 2015)
# Where two headings read alike, the source gives them in different places.
# Legend:
# S. aureus RN450 = assay: In Vitro Anti-Bacterial Activity Assay (MIC), gram positive; assay type: cell-based; conditions: Staphylococcus aureus, RN450, 18 h
# E. coli mL308 225 = assay: In Vitro Anti-Bacterial Activity Assay (MIC), gram negative; assay type: cell-based; conditions: Escherichia coli, ML308225, 18 h
# [1] = MIC class, Table 3 (Continued), read-out: Gram+ activity
# [2] = MIC class, Table 3 (Continued), read-out: Gram− activity
# [3] = gram positive bacteria, read-out: Antibiotic Activity Gram + (MIC)
# [4] = gram negative bacteria, read-out: Antibiotic Activity Gram − (MIC)
# [5] = MIC class, Table 3, read-out: Antibiotic Activity Gram +
# [6] = MIC class, Table 3, read-out: Antibiotic Activity Gram −
Structure (SMILES),MIC (S. aureus RN450; [3]),MIC (E. coli mL308 225; [4]),MIC (S. aureus RN450; [5]),MIC (E. coli mL308 225; [6]),also measured
CN(C)[C@@H]1C(O)=C(C(N)=O)C(=O)[C@@]2(O)C(O)=C3C(=O)c4c(O)ccc(CC(Cl)C5=CCCCC5)c4C[C@H]3C[C@@H]12 (some centres unmarked),–,–,–,–,MIC (S. aureus RN450; [1]): < 4 µg/mL; MIC (E. coli mL308 225; [2]): < 4 µg/mL
CN(C)[C@@H]1C(O)=C(C(N)=O)C(=O)[C@@]2(O)C(O)=C3C(=O)c4c(O)c(CN5CCCCC5)cc(-c5ccccn5)c4C[C@H]3C[C@@H]12,< 4 µg/mL,> 4 µg/mL,–,–,–
CN1CCCC1=Nc1ccc(-c2ccc(O)c3c2C[C@H]2C[C@H]4[C@@H](N(C)C)C(O)=C(C(N)=O)C(=O)[C@@]4(O)C(O)=C2C3=O)cc1 [GP],–,–,< 4 µg/mL,> 4 µg/mL,–
CN(C)c1cc(Cn2ccc(C=O)c2)c(O)c2c1C[C@H]1C[C@H]3[C@H](N(C)C)C(O)=C(C(N)=O)C(=O)[C@@]3(O)C(O)=C1C2=O,< 4 µg/mL,> 4 µg/mL,–,–,–
CN(C)[C@@H]1C(O)=C(C(N)=O)C(=O)[C@@]2(O)C(O)=C3C(=O)c4c(O)ccc(Br)c4C[C@H]3C[C@@H]12,–,–,–,–,MIC (S. aureus RN450; [1]): < 4 µg/mL; MIC (E. coli mL308 225; [2]): < 4 µg/mL
Cc1noc(C)c1S(=O)(=O)NCc1cc(N(C)C)c2c(c1O)C(=O)C1=C(O)[C@]3(O)C(=O)C(C(N)=O)=C(O)[C@@H](N(C)C)[C@@H]3C[C@@H]1C2,< 4 µg/mL,> 4 µg/mL,–,–,–
CN(C)c1cc(CN2CCCC2C(F)(F)F)c(O)c2c1C[C@H]1C[C@H]3[C@H](N(C)C)C(O)=C(C(N)=O)C(=O)[C@@]3(O)C(O)=C1C2=O (some centres unmarked),< 4 µg/mL,< 4 µg/mL,–,–,–
CN(C)c1cc(CO)c(O)c2c1C[C@H]1C[C@H]3[C@H](N(C)C)C(O)=C(C(N)=O)C(=O)[C@@]3(O)C(O)=C1C2=O,< 4 µg/mL,> 4 µg/mL,–,–,–
CN(C)c1cc(CN2CCOCC2)c(O)c2c1C[C@H]1C[C@H]3[C@H](N(C)C)C(O)=C(C(N)=O)C(=O)[C@@]3(O)C(O)=C1C2=O,< 4 µg/mL,> 4 µg/mL,–,–,–
COc1ccc(CNCc2cccc(C)c2)cc1-c1ccc(O)c2c1C[C@H]1C[C@H]3C(N(C)C)C(O)=C(C(N)=O)C(=O)[C@@]3(O)C(O)=C1C2=O (some centres unmarked) [HO],–,–,< 4 µg/mL,< 4 µg/mL,–
CN(C)c1cc(-c2ccccn2)c2c(c1O)C(=O)C1=C(O)[C@]3(O)C(=O)C(C(N)=O)=C(O)[C@@H](N(C)C)[C@@H]3C[C@@H]1C2,< 4 µg/mL,> 4 µg/mL,–,–,–
CN(C)c1cc(CN2CCC(F)CC2)c(O)c2c1C[C@H]1C[C@H]3[C@H](N(C)C)C(O)=C(C(N)=O)C(=O)[C@@]3(O)C(O)=C1C2=O,< 4 µg/mL,< 4 µg/mL,–,–,–
CN(C)Cc1cc(-c2ccoc2)c2c(c1O)C(=O)C1=C(O)[C@]3(O)C(=O)C(C(N)=O)=C(O)[C@@H](N(C)C)[C@@H]3C[C@@H]1C2,< 4 µg/mL,> 4 µg/mL,–,–,–
CCc1cc(CNCCC(F)(F)F)c(O)c2c1C[C@H]1C[C@H]3[C@H](N(C)C)C(O)=C(C(N)=O)C(=O)[C@@]3(O)C(O)=C1C2=O,< 4 µg/mL,< 4 µg/mL,–,–,–
CN(C)[C@@H]1C(OCc2ccccc2)=C(C(N)=O)C(=O)[C@@]2(O)C(O)=C3C(=O)c4c(O)cccc4C[C@H]3C[C@@H]12,> 4 µg/mL,> 4 µg/mL,–,–,–
C[C@H]1c2c(CN)cc(C(C)(C)C)c(O)c2C(=O)C2=C(O)[C@]3(O)C(=O)C(C(N)=O)=C(O)[C@@H](N(C)C)[C@@H]3[C@@H](O)[C@@H]21,> 4 µg/mL,> 4 µg/mL,–,–,–
CN(C)[C@@H]1C(O)=C(C(N)=O)C(=O)[C@@]2(O)C(O)=C3C(=O)c4c(O)c(N)cc(-c5ccccn5)c4C[C@H]3C[C@@H]12,< 4 µg/mL,> 4 µg/mL,–,–,–
COCC(C)CN(C)Cc1cc(N(C)C)c2c(c1O)C(=O)C1=C(O)[C@]3(O)C(=O)C(C(N)=O)=C(O)[C@@H](N(C)C)[C@@H]3C[C@@H]1C2 (some centres unmarked),< 4 µg/mL,> 4 µg/mL,–,–,–
CC(=O)Cc1cc(I)c2c(c1O)C(=O)C1=C(O)[C@]3(O)C(=O)C(C(N)=O)=C(O)[C@@H](N(C)C)[C@@H]3C[C@@H]1C2,> 4 µg/mL,> 4 µg/mL,–,–,–
CN(C)c1cc(CNC(=O)OCC(C)(C)C)c(O)c2c1C[C@H]1C[C@H]3[C@H](N(C)C)C(O)=C(C(N)=O)C(=O)[C@@]3(O)C(O)=C1C2=O [EN],–,–,< 4 µg/mL,> 4 µg/mL,–
CN(C)[C@@H]1C(O)=C(C(N)=O)C(=O)[C@@]2(O)C(O)=C3C(=O)c4c(O)cccc4/C(=C\c4ccc(C(F)(F)F)cc4)[C@H]3[C@H](O)[C@@H]12 [AC],–,–,< 4 µg/mL,> 4 µg/mL,–
CN(C)[C@@H]1C(O)=C(C(N)=O)C(=O)[C@@]2(O)C(O)=C3C(=O)c4c(ccc(NC5CCN(Cc6ccccc6)CC5)c4O)C[C@H]3C[C@@H]12,> 4 µg/mL,> 4 µg/mL,–,–,–
CN(C)c1cc(-c2ccc(F)c(F)c2)c(O)c2c1C[C@H]1C[C@H]3[C@H](N(C)C)C(O)=C(C(N)=O)C(=O)[C@@]3(O)C(O)=C1C2=O,–,–,–,–,MIC (S. aureus RN450; [1]): < 4 µg/mL; MIC (E. coli mL308 225; [2]): < 4 µg/mL

Structure (SMILES),MIC (S. aureus RN450; [3]),MIC (E. coli mL308 225; [4]),MIC (S. aureus RN450; [5]),MIC (E. coli mL308 225; [6]),also measured
CN(C)c1cc(NCC2CCCCC2)c(O)c2c1C[C@H]1C[C@H]3[C@H](N(C)C)C(O)=C(C(N)=O)C(=O)[C@@]3(O)C(O)=C1C2=O,> 4 µg/mL,> 4 µg/mL,–,–,–
CCc1cc(CNCC(C)C)c(O)c2c1C[C@H]1C[C@H]3[C@H](N(C)C)C(O)=C(C(N)=O)C(=O)[C@@]3(O)C(O)=C1C2=O [IZ],–,–,< 4 µg/mL,< 4 µg/mL,–
CN(C)[C@@H]1C(O)=C(C(N)=O)C(=O)[C@@]2(O)C(O)=C3C(=O)c4c(O)ccc(C5CCOC5)c4C[C@H]3C[C@@H]12 (some centres unmarked),< 4 µg/mL,< 4 µg/mL,–,–,–
C/C(=N/OCC(C)C)c1ccc(O)c2c1C[C@H]1C[C@H]3[C@H](N(C)C)C(O)=C(C(N)=O)C(=O)[C@@]3(O)C(O)=C1C2=O,< 4 µg/mL,< 4 µg/mL,–,–,–
CN(C)[C@@H]1C(O)=C(C(N)=O)C(=O)[C@@]2(O)C(O)=C3C(=O)c4c(O)ccc(-c5ccc(C(F)(F)F)cc5)c4C[C@H]3C[C@@H]12,–,–,–,–,MIC (S. aureus RN450; [1]): < 4 µg/mL; MIC (E. coli mL308 225; [2]): < 4 µg/mL
Cc1noc(C)c1S(=O)(=O)NCc1ccc(O)c2c1C[C@H]1C[C@H]3[C@H](N(C)C)C(O)=C(C(N)=O)C(=O)[C@@]3(O)C(O)=C1C2=O [IG],–,–,< 4 µg/mL,> 4 µg/mL,–
C[C@H]1c2c(Br)ccc(O)c2C(=O)C2=C(O)[C@]3(O)C(=O)C(C(N)=O)=C(O)[C@@H](N(C)C)[C@@H]3[C@@H](O)[C@@H]21,> 4 µg/mL,> 4 µg/mL,–,–,–
CCOP(=O)(OCC)C(Nc1ccc2c(c1O)C(=O)C1=C(O)[C@]3(O)C(=O)C(C(N)=O)=C(O)[C@@H](N(C)C)[C@@H]3[C@@H](O)[C@@H]1[C@H]2C)c1ccccc1 (some centres unmarked),–,–,–,–,MIC (S. aureus RN450; read-out: Gram+ activity): < 4 µg/mL; MIC (E. coli mL308 225; read-out: Gram− activity): > 4 µg/mL
C[C@H]1c2ccc(N(C)C3CCN(C)CC3)c(O)c2C(=O)C2=C(O)[C@]3(O)C(=O)C(C(N)=O)=C(O)[C@@H](N(C)C)[C@@H]3[C@@H](O)[C@@H]21,> 4 µg/mL,> 4 µg/mL,–,–,–
CN(C)[C@H]1C(O)=C(C(N)=O)C(=O)[C@@]2(O)C(O)=C3C(=O)c4c(O)ccc(-c5ccc(NC(=O)C(C)(C)C)cc5)c4C[C@H]3C[C@@H]12 [GT],–,–,< 4 µg/mL,> 4 µg/mL,–
COc1ccc(NC(=O)Nc2cc(N(C)C)c3c(c2O)C(=O)C2=C(O)[C@]4(O)C(=O)C(C(N)=O)=C(O)[C@@H](N(C)C)[C@@H]4C[C@@H]2C3)cc1 [KB],–,–,< 4 µg/mL,> 4 µg/mL,–
CN(C)[C@@H]1C(O)=C(C(N)=O)C(=O)[C@@]2(O)C(O)=C3C(=O)c4c(O)ccc(/C=C/c5ccc(C(F)(F)F)cc5)c4C[C@H]3C[C@@H]12,< 4 µg/mL,> 4 µg/mL,–,–,–
COc1ccc(CN2CCCC2)cc1-c1ccc2c(c1O)C(=O)C1=C(O)[C@]3(O)C(=O)C(C(N)=O)=C(O)[C@@H](N(C)C)[C@@H]3[C@@H](O)[C@@H]1[C@H]2C [HC],–,–,> 4 µg/mL,> 4 µg/mL,–
CN(C)[C@@H]1C(OCc2ccccc2)=C(C(N)=O)C(=O)[C@@]2(O)C(O)=C3C(=O)c4c(O)ccc(-c5ccc(C(F)(F)F)cc5)c4C[C@H]3C[C@@H]12 [OU],–,–,< 4 µg/mL,> 4 µg/mL,–
CN(C)[C@@H]1C(O)=C(C(N)=O)C(=O)[C@@]2(O)C(O)=C3C(=O)c4c(O)ccc(CCc5ccccn5)c4C[C@H]3C[C@@H]12 [BY],–,–,< 4 µg/mL,> 4 µg/mL,–
CCCCCc1ccc(O)c2c1C[C@H]1C[C@H]3C(N(C)C)C(O)=C(C(N)=O)C(=O)[C@@]3(O)C(O)=C1C2=O (some centres unmarked),–,–,–,–,MIC (S. aureus RN450; [1]): < 4 µg/mL; MIC (E. coli mL308 225; [2]): < 4 µg/mL
Cc1c2c(c(O)c3c(O)cccc13)C(=O)[C@]1(O)C(=O)C(C(N)=O)=C(O)[C@@H](N(C)C)[C@@H]1C2,–,–,–,–,MIC (S. aureus RN450; [1]): < 4 µg/mL; MIC (E. coli mL308 225; [2]): < 4 µg/mL
CC(C)NCc1ccc(-c2ccc(O)c3c2C[C@H]2C[C@H]4C(N(C)C)C(O)=C(C(N)=O)C(=O)[C@@]4(O)C(O)=C2C3=O)cc1 (some centres unmarked) [GL],–,–,< 4 µg/mL,< 4 µg/mL,–
CN(C)c1cc(CCC(=O)NC(C)(C)C)c(O)c2c1C[C@H]1C[C@H]3[C@H](N(C)C)C(O)=C(C(N)=O)C(=O)[C@@]3(O)C(O)=C1C2=O,> 4 µg/mL,> 4 µg/mL,–,–,–
COc1ccc(C=O)cc1-c1ccc(O)c2c1C[C@H]1C[C@H]3[C@@H](N(C)C)C(O)=C(C(N)=O)C(=O)[C@@]3(O)C(O)=C1C2=O [GO],–,–,< 4 µg/mL,> 4 µg/mL,–
C[C@H]1c2ccc(C(C)(C)C)c(O)c2C(=O)C2=C(O)[C@]3(O)C(=O)C(C(N)=O)=C(O)[C@@H](N(C)C)[C@@H]3[C@@H](O)[C@@H]21 [O],–,–,< 4 µg/mL,> 4 µg/mL,–
COc1ccc(CN2CCCC2)cc1-c1ccc(O)c2c1C[C@H]1C[C@H]3C(N(C)C)C(O)=C(C(N)=O)C(=O)[C@@]3(O)C(O)=C1C2=O (some centres unmarked) [ED],–,–,< 4 µg/mL,< 4 µg/mL,–
COc1ccc(CNCc2ccc(-c3ccc(O)c4c3C[C@H]3C[C@H]5[C@H](N(C)C)C(O)=C(C(N)=O)C(=O)[C@@]5(O)C(O)=C3C4=O)cc2)cc1 [GX],–,–,< 4 µg/mL,< 4 µg/mL,–
